Experimental findings from ChEMBL document CHEMBL5465560, “Selectivity Literature for EUbOPEN Chemogenomic Library” (2024) are described below.

The IC50 is the point on the concentration scale where inhibition reaches its midpoint.

Assay [1] has as its target Cyclin-dependent kinase 15 (Homo sapiens) (UniProt Q96Q40). The assay is described as follows: Selectivity interaction (Ambit KINOMEscan and KiNATiv profiling in Jurkat cells) EUB0000090b CDK15. To be noted: at 1 µM. It is filed as cell-based.
Assay [2] deals with Rho-associated protein kinase 1 (Homo sapiens) (UniProt Q13464). Kind of assay: Selectivity interaction (Ambit KINOMEscan and KiNATiv profiling in Jurkat cells) EUB0000090b ROCK1. It is filed as cell-based. To be noted: at 1 µM.
Chain of Rho-associated protein kinase 1 (Homo sapiens) (Q13464 2-1354 limits assumed): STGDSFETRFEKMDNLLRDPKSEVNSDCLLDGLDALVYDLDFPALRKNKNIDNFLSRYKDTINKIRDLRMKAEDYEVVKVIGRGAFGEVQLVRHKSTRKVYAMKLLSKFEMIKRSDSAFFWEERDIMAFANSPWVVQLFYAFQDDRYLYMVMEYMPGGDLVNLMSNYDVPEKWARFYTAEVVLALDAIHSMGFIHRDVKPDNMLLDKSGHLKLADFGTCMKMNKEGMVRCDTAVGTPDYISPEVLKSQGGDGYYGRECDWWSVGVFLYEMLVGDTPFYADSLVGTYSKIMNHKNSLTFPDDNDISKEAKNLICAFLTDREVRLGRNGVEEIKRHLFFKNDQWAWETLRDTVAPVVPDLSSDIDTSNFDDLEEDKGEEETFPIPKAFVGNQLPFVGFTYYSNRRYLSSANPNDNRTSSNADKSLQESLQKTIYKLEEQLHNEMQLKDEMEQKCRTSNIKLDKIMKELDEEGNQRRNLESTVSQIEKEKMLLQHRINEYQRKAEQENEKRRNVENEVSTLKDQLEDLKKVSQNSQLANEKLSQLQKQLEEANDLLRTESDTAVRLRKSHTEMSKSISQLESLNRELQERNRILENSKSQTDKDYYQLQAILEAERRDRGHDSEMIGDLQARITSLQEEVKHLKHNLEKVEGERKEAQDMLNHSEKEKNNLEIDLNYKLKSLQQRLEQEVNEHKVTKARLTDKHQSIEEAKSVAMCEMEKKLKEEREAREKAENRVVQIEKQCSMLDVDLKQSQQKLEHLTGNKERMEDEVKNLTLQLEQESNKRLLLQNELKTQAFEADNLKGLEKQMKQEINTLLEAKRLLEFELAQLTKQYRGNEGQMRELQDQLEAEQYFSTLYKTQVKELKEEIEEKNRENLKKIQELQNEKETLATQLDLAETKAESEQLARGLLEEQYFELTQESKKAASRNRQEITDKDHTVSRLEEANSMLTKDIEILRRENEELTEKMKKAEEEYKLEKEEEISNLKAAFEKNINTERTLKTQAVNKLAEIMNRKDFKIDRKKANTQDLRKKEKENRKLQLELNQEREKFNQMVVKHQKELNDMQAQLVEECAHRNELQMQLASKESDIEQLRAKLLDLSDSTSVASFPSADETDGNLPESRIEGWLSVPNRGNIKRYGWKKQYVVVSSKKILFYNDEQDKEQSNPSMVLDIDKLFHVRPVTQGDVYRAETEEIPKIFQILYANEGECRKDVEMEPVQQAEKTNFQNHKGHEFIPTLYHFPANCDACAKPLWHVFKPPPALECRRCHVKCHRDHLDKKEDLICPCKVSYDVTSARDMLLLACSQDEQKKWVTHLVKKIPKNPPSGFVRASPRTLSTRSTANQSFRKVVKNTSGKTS
Assay [3] concerns the target T1, MAP/microtubule affinity-regulating kinase 4 (Homo sapiens) (UniProt Q96L34).
T1 sequence (whole entry): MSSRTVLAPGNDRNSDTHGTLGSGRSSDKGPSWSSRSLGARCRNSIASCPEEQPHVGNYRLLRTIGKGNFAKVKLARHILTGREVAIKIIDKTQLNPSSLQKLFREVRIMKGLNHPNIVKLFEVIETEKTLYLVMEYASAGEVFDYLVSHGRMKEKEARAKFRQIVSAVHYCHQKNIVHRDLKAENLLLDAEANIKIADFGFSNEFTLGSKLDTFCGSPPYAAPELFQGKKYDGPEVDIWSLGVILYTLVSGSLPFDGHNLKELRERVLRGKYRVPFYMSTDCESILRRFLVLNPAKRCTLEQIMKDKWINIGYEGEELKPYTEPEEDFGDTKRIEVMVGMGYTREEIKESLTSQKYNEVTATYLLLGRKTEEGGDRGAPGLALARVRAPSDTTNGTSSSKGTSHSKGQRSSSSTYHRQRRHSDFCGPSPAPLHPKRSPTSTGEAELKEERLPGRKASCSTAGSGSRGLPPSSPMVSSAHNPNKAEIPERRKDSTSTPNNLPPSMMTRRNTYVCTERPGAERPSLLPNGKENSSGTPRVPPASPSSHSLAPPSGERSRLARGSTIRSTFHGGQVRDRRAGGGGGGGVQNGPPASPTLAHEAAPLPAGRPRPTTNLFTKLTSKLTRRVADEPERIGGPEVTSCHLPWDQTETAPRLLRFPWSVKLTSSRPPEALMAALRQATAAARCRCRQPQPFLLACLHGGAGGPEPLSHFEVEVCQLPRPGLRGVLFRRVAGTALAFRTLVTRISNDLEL
To be noted: at 10 µM.

Assay [4] concerns the target Serine/threonine-protein kinase MRCK alpha (Homo sapiens) (UniProt Q5VT25). Kind of assay: Selectivity interaction (KinomeScan (DiscoverX)) EUB0000229b CDC42BPA. To be noted: at 10 µM.
Assay [5] concerns the target Ribosomal protein S6 kinase alpha-5 (Homo sapiens) (UniProt O75582). The assay is described as follows: Selectivity interaction (KinomeScan (DiscoverX)) EUB0001079a RPS6KA5. To be noted: at 1 µM.
Assay [6] addresses Cyclin-dependent kinase 2/cyclin A (Homo sapiens, UniProt P24941). The assay is described as follows: Selectivity interaction (Enyzmatic assay) EUB0000601a CDK2. It is filed as protein-complex assay.
Assay [7] has as its target T2, Serine/threonine-protein kinase Chk1 (Homo sapiens) (UniProt O14757).
T2 sequence (whole entry): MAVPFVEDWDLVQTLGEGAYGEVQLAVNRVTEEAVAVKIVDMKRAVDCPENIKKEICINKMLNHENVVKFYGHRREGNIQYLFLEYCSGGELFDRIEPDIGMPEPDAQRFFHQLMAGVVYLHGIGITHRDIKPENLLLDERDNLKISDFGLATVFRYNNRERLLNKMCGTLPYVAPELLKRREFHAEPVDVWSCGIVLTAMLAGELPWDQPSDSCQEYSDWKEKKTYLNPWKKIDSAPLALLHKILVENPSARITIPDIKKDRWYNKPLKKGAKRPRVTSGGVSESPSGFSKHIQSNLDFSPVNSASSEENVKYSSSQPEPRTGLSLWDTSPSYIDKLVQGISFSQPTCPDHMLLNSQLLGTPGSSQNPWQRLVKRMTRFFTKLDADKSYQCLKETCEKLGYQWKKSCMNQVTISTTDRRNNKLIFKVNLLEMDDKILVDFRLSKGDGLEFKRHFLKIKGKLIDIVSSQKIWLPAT
Kind of assay: Selectivity interaction (KinomeScan (DiscoverX)) EUB0001619a CHEK1. To be noted: at 1 µM.

Assay [8] concerns the target Protein-tyrosine kinase 2-beta (Homo sapiens) (UniProt Q14289). The assay is described as follows: Selectivity interaction (ActivX KiNativ screen (kinase selectivity in THP-1 cell lysates)) EUB0000639a PTK2B. It is filed as subcellular. To be noted: lysate, at 5 µM.
Assay [9] has as its target T3, Mitogen-activated protein kinase 13 (Homo sapiens) (UniProt O15264).
T3 sequence (whole entry): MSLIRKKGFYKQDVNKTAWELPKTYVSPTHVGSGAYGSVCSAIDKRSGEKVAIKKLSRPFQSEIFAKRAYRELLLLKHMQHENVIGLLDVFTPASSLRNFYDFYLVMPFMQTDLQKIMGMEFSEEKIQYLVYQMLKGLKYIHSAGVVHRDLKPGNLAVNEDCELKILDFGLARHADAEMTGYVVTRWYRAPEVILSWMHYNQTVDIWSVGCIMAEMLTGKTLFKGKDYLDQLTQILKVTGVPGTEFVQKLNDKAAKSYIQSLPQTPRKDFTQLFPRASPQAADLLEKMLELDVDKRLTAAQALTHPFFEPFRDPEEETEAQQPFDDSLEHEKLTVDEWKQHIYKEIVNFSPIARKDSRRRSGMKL
The assay is described as follows: Selectivity interaction (Kinase panel (Invitrogen)) EUB0000639a MAPK13. To be noted: at 200 nM.

In assay [10] the target is Platelet-derived growth factor receptor alpha (Homo sapiens, UniProt P16234). To be noted: at 10 µM.
The target in assay [11] is Cyclin-dependent kinase 15 (Homo sapiens) (UniProt Q96Q40). The assay is described as follows: Selectivity interaction (KinomeScan (DiscoverX)) EUB0000092b CDK15. To be noted: at 10 µM.
Chain of Cyclin-dependent kinase 15 (Homo sapiens) (Q96Q40 whole entry): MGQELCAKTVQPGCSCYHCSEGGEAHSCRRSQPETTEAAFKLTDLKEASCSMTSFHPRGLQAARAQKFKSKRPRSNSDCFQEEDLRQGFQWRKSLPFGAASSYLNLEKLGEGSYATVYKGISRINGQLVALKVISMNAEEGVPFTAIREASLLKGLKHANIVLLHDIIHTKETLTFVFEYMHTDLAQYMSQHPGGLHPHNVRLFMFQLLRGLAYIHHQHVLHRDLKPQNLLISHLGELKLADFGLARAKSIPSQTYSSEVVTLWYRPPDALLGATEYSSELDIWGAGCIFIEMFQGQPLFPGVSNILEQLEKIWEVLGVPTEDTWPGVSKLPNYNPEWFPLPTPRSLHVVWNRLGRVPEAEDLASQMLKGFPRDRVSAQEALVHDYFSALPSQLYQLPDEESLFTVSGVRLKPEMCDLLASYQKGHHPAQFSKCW
Assay [12] concerns the target cAMP-dependent protein kinase catalytic subunit beta (Homo sapiens) (UniProt P22694). To be noted: at 10 µM.
Assay [13] has as its target Ephrin type-A receptor 7 (Homo sapiens) (UniProt Q15375). The assay is described as follows: Selectivity interaction (KinomeScan (DiscoverX)) EUB0000595a EPHA7. To be noted: at 10 µM.

Chain of Protein-tyrosine kinase 2-beta (Homo sapiens) (Q14289 whole entry, looked up): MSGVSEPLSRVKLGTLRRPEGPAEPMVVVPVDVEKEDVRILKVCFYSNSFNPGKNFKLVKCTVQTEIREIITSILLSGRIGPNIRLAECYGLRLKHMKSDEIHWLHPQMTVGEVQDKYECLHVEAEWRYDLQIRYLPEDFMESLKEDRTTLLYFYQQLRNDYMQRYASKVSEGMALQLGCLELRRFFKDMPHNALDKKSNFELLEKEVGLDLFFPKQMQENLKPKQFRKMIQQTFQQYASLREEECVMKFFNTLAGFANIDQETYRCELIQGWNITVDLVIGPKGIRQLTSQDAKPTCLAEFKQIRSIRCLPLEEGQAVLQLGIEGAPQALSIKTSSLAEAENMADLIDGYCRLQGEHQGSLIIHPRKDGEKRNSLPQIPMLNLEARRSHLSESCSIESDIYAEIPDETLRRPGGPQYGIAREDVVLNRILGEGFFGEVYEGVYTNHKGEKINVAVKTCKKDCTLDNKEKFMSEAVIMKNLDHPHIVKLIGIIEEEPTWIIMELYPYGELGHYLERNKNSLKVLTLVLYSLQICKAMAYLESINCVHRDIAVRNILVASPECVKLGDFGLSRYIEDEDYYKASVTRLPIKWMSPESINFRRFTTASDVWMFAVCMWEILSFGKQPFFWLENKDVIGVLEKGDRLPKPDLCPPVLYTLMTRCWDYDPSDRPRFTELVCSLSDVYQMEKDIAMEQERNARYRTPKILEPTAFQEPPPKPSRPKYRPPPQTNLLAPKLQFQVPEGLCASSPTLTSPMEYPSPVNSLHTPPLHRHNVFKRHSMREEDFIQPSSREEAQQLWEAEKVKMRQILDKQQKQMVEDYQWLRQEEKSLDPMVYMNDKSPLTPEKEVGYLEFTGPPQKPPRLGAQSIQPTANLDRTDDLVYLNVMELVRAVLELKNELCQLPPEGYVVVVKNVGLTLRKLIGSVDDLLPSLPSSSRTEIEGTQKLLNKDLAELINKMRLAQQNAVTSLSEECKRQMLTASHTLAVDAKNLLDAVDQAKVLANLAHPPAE
Chain of Ephrin type-A receptor 7 (Homo sapiens) (Q15375 28-998 limits assumed): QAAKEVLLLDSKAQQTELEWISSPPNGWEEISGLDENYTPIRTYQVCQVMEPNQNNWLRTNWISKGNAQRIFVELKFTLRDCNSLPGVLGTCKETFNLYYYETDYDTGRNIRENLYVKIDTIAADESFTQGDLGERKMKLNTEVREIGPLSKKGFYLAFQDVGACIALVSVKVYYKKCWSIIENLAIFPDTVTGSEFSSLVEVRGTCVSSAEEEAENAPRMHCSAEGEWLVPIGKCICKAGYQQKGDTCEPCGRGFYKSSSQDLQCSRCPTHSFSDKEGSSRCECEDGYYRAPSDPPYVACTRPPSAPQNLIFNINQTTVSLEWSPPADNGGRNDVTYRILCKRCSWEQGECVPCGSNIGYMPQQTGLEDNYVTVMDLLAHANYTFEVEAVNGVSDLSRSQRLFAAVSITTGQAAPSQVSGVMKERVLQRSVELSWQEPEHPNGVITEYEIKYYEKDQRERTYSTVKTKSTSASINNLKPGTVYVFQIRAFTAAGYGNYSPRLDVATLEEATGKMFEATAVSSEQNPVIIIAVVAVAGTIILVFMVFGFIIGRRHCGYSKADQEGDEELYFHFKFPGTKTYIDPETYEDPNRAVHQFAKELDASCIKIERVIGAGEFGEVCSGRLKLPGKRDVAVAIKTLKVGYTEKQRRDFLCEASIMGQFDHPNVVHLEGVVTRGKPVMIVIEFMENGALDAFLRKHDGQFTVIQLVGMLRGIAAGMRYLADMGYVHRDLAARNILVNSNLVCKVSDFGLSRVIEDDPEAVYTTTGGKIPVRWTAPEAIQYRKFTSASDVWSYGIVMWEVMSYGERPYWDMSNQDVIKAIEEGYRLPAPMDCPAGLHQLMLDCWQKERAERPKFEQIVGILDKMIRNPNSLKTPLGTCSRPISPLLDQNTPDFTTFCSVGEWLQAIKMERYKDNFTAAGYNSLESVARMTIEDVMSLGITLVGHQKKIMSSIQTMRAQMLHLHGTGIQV
Chain of Ribosomal protein S6 kinase alpha-5 (Homo sapiens) (O75582 whole entry, looked up): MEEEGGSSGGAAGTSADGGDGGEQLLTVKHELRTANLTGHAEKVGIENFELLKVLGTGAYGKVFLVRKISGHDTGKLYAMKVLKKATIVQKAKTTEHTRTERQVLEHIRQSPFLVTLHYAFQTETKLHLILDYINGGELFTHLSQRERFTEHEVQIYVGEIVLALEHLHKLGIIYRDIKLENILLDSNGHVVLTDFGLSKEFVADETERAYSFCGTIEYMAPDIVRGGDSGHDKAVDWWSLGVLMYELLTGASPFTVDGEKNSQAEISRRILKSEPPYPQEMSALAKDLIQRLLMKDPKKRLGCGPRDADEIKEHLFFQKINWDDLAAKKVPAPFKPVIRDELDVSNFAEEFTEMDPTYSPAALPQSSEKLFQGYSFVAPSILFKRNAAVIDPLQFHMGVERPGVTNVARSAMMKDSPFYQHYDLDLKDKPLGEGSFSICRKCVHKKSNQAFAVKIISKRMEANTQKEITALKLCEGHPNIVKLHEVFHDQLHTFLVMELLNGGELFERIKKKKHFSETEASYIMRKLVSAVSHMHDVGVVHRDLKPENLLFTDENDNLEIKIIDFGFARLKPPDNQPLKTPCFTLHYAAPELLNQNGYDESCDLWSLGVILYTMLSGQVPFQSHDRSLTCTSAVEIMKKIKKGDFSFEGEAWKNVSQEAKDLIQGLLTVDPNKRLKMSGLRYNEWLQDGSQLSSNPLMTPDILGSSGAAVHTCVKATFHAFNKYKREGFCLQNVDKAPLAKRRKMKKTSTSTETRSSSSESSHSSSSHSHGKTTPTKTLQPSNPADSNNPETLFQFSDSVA

As to `CN(C)C/C=C/C(=O)Nc1ccc(C(=O)N2CCCC(Nc3ncc(Cl)c(-c4c[nH]c5ccccc45)n3)C2)cc1` (stereo not drawn), the % of control in assay [1] stood at 73%; in assay [2], 90%.

`Cc1cc([C@@H](C)Nc2ccccc2C(=O)O)c2nc(N3CCOCC3)cc(=O)n2c1` [AZD-6482] gave a % of control in assay [3] of 100%. Consider `COc1cc(N(C)c2ccnc3ccc(C(F)(F)F)cc23)cc(OC)c1OC`, for which the % binding in assay [4] came out at 100%. On to `Nc1cnc(N2CCc3cc(S(=O)(=O)Nc4c(F)cc(Cl)cc4F)cc(N4CCCC4=O)c32)nc1` [TP-020n], for which the % of control in [5] was determined as 95%.

Consider `CCc1cc(Nc2nccc(-c3c(-c4ccc(OC)c(C(=O)Nc5c(F)cccc5F)c4)nc4ccccn34)n2)c(OC)cc1N1CCC(N2CCN(S(C)(=O)=O)CC2)CC1`, for which, in assay [6], the IC50 is over 10 µM. For `N#Cc1cccc(-c2c[nH]c3ncnc(N4CCOCC4)c23)c1`, in assay [7], the % of control was 94%. Take `CC[C@@H]1[C@H](F)C(=O)N[C@@H]1COc1nccc2cc(C(N)=O)c(OC)cc12` [ZIMLOVISERTIB]: the figures for the % of inhibition in assay [8] and in assay [9] were 11.6% and 6.06%, respectively. As for `CCN(CC)CCCCNc1ncc2cc(-c3cc(OC)cc(OC)c3)c(NC(=O)NC(C)(C)C)nc2n1`, in assay [10], the % of control was determined as 100%.

In assay [11], `CCC(=O)N1CCN(c2ccc(-n3c(=O)ccc4cnc5ccc(-c6cnc7ccccc7c6)cc5c43)cc2C(F)(F)F)CC1` showed a % of control of 88%.

`COCC(=O)NC/C=C/c1ccc2ncnc(Nc3ccc(Oc4ccc(C)nc4)c(C)c3)c2c1` [CP-724714]: the % of control in assay [12] and in assay [13] was 100% each time.
